Converted amounts (≈) assume the structure as drawn. Where two headings read alike, the source gives them in different places.

One data set has as its system HepG2 cells. The data set is described as follows: HepG2 cytotoxicity. The settings on record: Homo sapiens, HepG2, read-out: HepG2 inhibitory concentration (IC50).
Data set [1] is classed as in vitro ADME, mouse. The settings on record: for Microsomal Cli: CD1, mouse; for Mouse micro Cl: microsomes.
In a further data set the test system is M. tuberculosis (H37Rv). The data set is described as follows: microbe, parasite or virus in culture. Type of data set: cell-based, Mycobacterium tuberculosis. The settings on record: Mycobacterium tuberculosis, H37RV.
Another data set is described as follows: physchem. Type of data set: physicochemical.
The format of data set [2] is in vitro ADME, mouse. The settings on record: mouse.
[3] abbreviates: read-out: Wk2_7H9/DPPC/ casitone/ Tyloxapol MIC.
Setting [4] is: read-out: Wk2_ 7H9/DPPC/ cholesterol/BSA/ Tyloxapol MIC.
Where [5] appears, read: read-out: Wk2_7H9/glucose/ BSA/Tyloxapol MIC.
[6] abbreviates: read-out: Wk2_7H9/glucose/ casitone/ Tyloxapol MIC.
[7] abbreviates: pH 7.4, aqueous buffer, kinetic from dmso stock.

Text for HepG2 cells: Assays to establish HepG2 cytotoxicity, in vitro microsomal/hepatocyte metabolic stability, aqueous kinetic solubility, and in vivo pharmacokinetic profiles were all performed as previously described.[15],[35]−[37]

For the molecule `CN(C)c1ncnc2sc(-c3c(F)c(F)cc(F)c3F)nc12` [Compound 2, CN(C)c1ncnc2sc(nc12)-c1c(c(cc(c1F)F)F)F], the IC50 with HepG2 cells was greater than 100 µM. Further, the “Microsomal Cli” value in data set [1] is given as greater than 50 mL/min/g. The “Mouse micro Cl” value in data set [1] was greater than 50 mLmin/g. The MIC with M. tuberculosis (H37Rv) (read-out: H37Rv MIC A) was greater than 50 µM; in the data set on M. tuberculosis (H37Rv) (read-out: H37Rv MIC B), greater than 50 µM; in the data set on M. tuberculosis (H37Rv) (setting [3]), greater than 50 µM; in the data set on M. tuberculosis (H37Rv) (setting [4]), greater than 50 µM; in the data set on M. tuberculosis (H37Rv) (setting [5]) it was greater than 50 µM; in the data set on M. tuberculosis (H37Rv) (setting [6]), 4.7 µM (≈ 1.54 µg/mL).

For the molecule `CN(C)c1ncnc2sc(-c3ccccc3)nc12` [Compound 3, CN(C)c1ncnc2sc(nc12)-c1ccccc1], the IC50 in the data set with HepG2 cells is greater than 100 µM. Further, in data set [1], the “Microsomal Cli” value is reported as greater than 50 mL/min/g. In addition, the “Mouse micro Cl” value in data set [1] is listed as greater than 50 mLmin/g. Also, the MIC in the data set on M. tuberculosis (H37Rv) (read-out: H37Rv MIC A), in the data set with M. tuberculosis (H37Rv) (read-out: H37Rv MIC B), in the data set with M. tuberculosis (H37Rv) (setting [3]), with M. tuberculosis (H37Rv) (setting [4]), with M. tuberculosis (H37Rv) (setting [5]) and with M. tuberculosis (H37Rv) (setting [6]) was greater than 50 µM each time.

Regarding `CN(C)c1ncnc2sc(-c3cc(F)c(F)c(F)c3)nc12` [Compound 4, CN(C)c1ncnc2sc(nc12)-c1cc(c(c(c1)F)F)F], the IC50 in the data set on HepG2 cells is greater than 100 µM. Further, in data set [1], the “Microsomal Cli” value is greater than 50 mL/min/g. For the same molecule, in data set [1], the “Mouse micro Cl” value is greater than 50 mLmin/g. The MIC with M. tuberculosis (H37Rv) (read-out: H37Rv MIC A), in the data set on M. tuberculosis (H37Rv) (read-out: H37Rv MIC B), in the data set on M. tuberculosis (H37Rv) (setting [3]), in the data set on M. tuberculosis (H37Rv) (setting [4]), in the data set on M. tuberculosis (H37Rv) (setting [5]) and in the data set with M. tuberculosis (H37Rv) (setting [6]) was greater than 50 µM in each case.

Consider `CN(C)c1ncnc2sc(-c3ccc(F)cc3)nc12` [Compound 5, CN(C)c1ncnc2sc(nc12)-c1ccc(cc1)F], for which, in the data set with HepG2 cells, the IC50 is greater than 100 µM. Also, the “Microsomal Cli” value in data set [1] is greater than 50 mL/min/g. In data set [1], the “Mouse micro Cl” value is greater than 50 mLmin/g. Further, the MIC in the data set on M. tuberculosis (H37Rv) (read-out: H37Rv MIC A) is greater than 50 µM; with M. tuberculosis (H37Rv) (read-out: H37Rv MIC B), greater than 50 µM; in the data set on M. tuberculosis (H37Rv) (setting [3]) it was greater than 50 µM; with M. tuberculosis (H37Rv) (setting [4]), greater than 50 µM; in the data set on M. tuberculosis (H37Rv) (setting [5]) it was greater than 50 µM; in the data set on M. tuberculosis (H37Rv) (setting [6]) it was 19 µM (≈ 5.21 µg/mL).

Turning to `CN(C)c1ncnc2c1nc(-c1c(F)c(F)c(F)c(F)c1F)n2C` [Compound 7, CN(C)c1ncnc2n(c(nc12)-c1c(c(c(c(c1F)F)F)F)F)C], the IC50 with HepG2 cells was greater than 100 µM. Further, the “Microsomal Cli” value in data set [1] is recorded as 8.4 mL/min/g. For the same molecule, the “Mouse micro Cl” value in data set [1] turned out to be 8.4 mLmin/g. For the same molecule, the MIC with M. tuberculosis (H37Rv) (read-out: H37Rv MIC A) is 1.9 µM (≈ 0.652 µg/mL); with M. tuberculosis (H37Rv) (read-out: H37Rv MIC B), greater than 50 µM; with M. tuberculosis (H37Rv) (setting [3]), 1.9 µM (≈ 0.652 µg/mL); in the data set with M. tuberculosis (H37Rv) (setting [4]) it was greater than 50 µM; in the data set on M. tuberculosis (H37Rv) (setting [5]) it was greater than 50 µM; in the data set with M. tuberculosis (H37Rv) (setting [6]), 1.7 µM (≈ 0.584 µg/mL). For the same molecule, the solubility kinetic in “physchem” (setting [7]) and in “physchem” (read-out: Kin. Sol) was 26 µM (≈ 8.92 µg/mL) throughout.

Turning to `CN(C)c1ccnc2oc(-c3c(F)c(F)c(F)c(F)c3F)nc12` [Compound 13, CN(C)c1ccnc2oc(nc12)-c1c(c(c(c(c1F)F)F)F)F], in data set [1], the “Microsomal Cli” value is recorded as greater than 50 mL/min/g. In addition, the “Mouse micro Cl” value in data set [1] is on record as greater than 50 mLmin/g. For the same molecule, in data set [2], the “Hepatocyte Cli” value is recorded as greater than 50 mL/min/g. In data set [2] (hepatocytes), the “Mouse Heps Cl” value is greater than 50 mLmin/g. Moreover, the MIC was 0.6 µM (≈ 0.198 µg/mL) in the data set on M. tuberculosis (H37Rv) (read-out: H37Rv MIC A); 3.1 µM (≈ 1.02 µg/mL) in the data set on M. tuberculosis (H37Rv) (read-out: H37Rv MIC B); 0.6 µM (≈ 0.198 µg/mL) in the data set on M. tuberculosis (H37Rv) (setting [3]); 3.1 µM (≈ 1.02 µg/mL) with M. tuberculosis (H37Rv) (setting [4]); 2.3 µM (≈ 0.757 µg/mL) in the data set with M. tuberculosis (H37Rv) (setting [5]); 0.6 µM (≈ 0.198 µg/mL) with M. tuberculosis (H37Rv) (setting [6]). For the same molecule, the solubility kinetic in “physchem” (setting [7]) and in “physchem” (read-out: Kin. Sol) was 1.6 µM (≈ 0.527 µg/mL) throughout.

As to `COC(=O)c1cccnc1NC(=O)c1c(F)c(F)c(F)c(F)c1F` [Compound 17, COC(=O)c1cccnc1NC(=O)c1c(c(c(c(c1F)F)F)F)F], in the data set with HepG2 cells, the IC50 was greater than 100 µM. The “Microsomal Cli” value in data set [1] was 47 mL/min/g. Further, the “Mouse micro Cl” value in data set [1] was 47 mLmin/g. In addition, the MIC in the data set on M. tuberculosis (H37Rv) (read-out: H37Rv MIC A) is 9.4 µM (≈ 3.25 µg/mL); in the data set on M. tuberculosis (H37Rv) (read-out: H37Rv MIC B) it was greater than 50 µM; in the data set with M. tuberculosis (H37Rv) (setting [3]), 9.4 µM (≈ 3.25 µg/mL); in the data set with M. tuberculosis (H37Rv) (setting [4]) it was greater than 50 µM; with M. tuberculosis (H37Rv) (setting [5]), greater than 50 µM; in the data set with M. tuberculosis (H37Rv) (setting [6]), 12.5 µM (≈ 4.33 µg/mL).

The values are drawn from publication PMC11915372, “Identification of a Series Containing a Pentafluorophenyl Moiety That Targets Pks13 to Inhibit Growth of Mycobacterium tuberculosis” (ACS Infectious Diseases, 2025).
